Each compound was assayed against Epidermal Growth Factor Receptor (EGFR) (Homo sapiens (Human), UniProt P00533) (assay: EGFR HTRF kinase assay). Conditions: not given.
Format: biochemical
Protocol: EGFR inhibitory activity of compounds of the present invention is quantified employing the EGFR HTRF assay as described in the following paragraphs:
Epidermal Growth Factor Receptor (EGFR), affinity-purified from human carcinoma A431 cells (Sigma-Aldrich, # E3641), is used as kinase. As substrate for the kinase reaction, the biotinylated peptide biotin-Ahx-[…] (C-terminus in amide form) is used (available from, e.g., Biosynthan GmbH, Berlin-Buch, Germany).
EGFR is incubated for 30 min at 22° C. in the presence of different concentrations of test compounds in 5 μl assay buffer [50 mM Hepes/NaOH pH 7.0, 1 mM MgCl2, 5 mM MnCl2, 1.0 mM dithiothreitol, 0.5 mM sodium orthovanadate, 10 μM adenosine triphosphate (ATP), 1 μM substrate, 0.005% (v/v) Tween-20, 1% (v/v) dimethylsulfoxide]. The concentration of EGFR is adjusted depending on the activity of the enzyme lot and is chosen appropriate to have the assay in the linear range; typical concentrations are in the range of 20 U/ml. The reaction is stopped by the addition of 5 μl of a solution of HTRF detection reagents [0.1 μM streptavidine-XLent and 1 nM PT66-Eu-Chelate, an Europium-chelate labelled anti-phosphotyrosine antibody (Perkin Elmer)] in an aqueous EDTA solution [80 mM EDTA, 0.2% (w/v) bovine serum albumin in 50 mM HEPES/NaOH pH 7.0].
The resulting mixture is incubated for 1 h at 22° C. to allow the binding of the biotinylated phosphorylated peptide to the streptavidine-XLent and the PT66-Eu-Chelate. Subsequently, the amount of phosphorylated substrate is evaluated by measurement of the resonance energy transfer from the PT66-Eu-Chelate to the streptavidine-XLent. Therefore, the fluorescence emissions at 620 nm and 665 nm after excitation at 350 nm are measured in an HTRF reader, e.g. a Rubystar (BMG Labtechnologies, Offenburg, Germany) or a Viewlux (Perkin-Elmer). The ratio of the emissions at 665 nm and at […] is taken as the measure for the amount of phosphorylated substrate.

Chain of Epidermal Growth Factor Receptor (EGFR) (P00533 25-1210): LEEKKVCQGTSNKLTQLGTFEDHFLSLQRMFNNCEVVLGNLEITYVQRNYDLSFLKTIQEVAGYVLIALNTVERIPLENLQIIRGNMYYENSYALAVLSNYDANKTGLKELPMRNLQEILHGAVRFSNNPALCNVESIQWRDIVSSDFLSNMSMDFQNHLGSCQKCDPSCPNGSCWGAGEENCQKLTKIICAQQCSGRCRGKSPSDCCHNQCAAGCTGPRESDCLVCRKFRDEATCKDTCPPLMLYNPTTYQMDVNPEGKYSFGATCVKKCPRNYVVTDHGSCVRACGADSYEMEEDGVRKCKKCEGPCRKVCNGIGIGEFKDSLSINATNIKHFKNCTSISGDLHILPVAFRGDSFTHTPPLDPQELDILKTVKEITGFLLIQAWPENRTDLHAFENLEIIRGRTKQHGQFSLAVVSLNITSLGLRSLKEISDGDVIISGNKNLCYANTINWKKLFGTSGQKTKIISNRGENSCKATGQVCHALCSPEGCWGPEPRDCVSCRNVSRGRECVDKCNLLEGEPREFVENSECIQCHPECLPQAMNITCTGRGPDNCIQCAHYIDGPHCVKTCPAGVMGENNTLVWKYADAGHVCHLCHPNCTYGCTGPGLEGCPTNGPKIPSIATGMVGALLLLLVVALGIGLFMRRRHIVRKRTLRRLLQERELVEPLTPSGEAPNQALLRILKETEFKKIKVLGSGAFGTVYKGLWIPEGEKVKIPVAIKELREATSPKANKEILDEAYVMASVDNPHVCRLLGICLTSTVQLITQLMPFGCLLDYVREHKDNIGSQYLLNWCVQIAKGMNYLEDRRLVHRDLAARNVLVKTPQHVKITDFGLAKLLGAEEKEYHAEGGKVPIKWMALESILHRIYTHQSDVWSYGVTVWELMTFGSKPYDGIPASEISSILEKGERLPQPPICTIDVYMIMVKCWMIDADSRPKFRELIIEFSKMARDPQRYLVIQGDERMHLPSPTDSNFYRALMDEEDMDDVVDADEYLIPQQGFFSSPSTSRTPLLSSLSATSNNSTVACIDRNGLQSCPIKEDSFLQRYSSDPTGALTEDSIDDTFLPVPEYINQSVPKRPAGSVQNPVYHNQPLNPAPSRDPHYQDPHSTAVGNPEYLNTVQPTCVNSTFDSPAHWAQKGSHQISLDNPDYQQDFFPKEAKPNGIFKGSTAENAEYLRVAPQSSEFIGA

IC50 | SMILES
1 nM | CC(C)N(C)C/C=C/C(=O)N1CCc2c(sc3ncnc(Nc4cc(O)cc(Cl)c4)c23)C1 [Example 123, 3-Chloro-5-[(7-{(2E)-4-[methyl(1-methylethyl)amino]but-2-enoyl}-5,6,7,8-tetrahydropyrido[4′,3′:4,5]thieno[2,3-d]pyrimidin-4-yl)amino]phenol]

Same assay, conditions: EGFR affinity-purified from A431 cells, 10 μM ATP, 30 min at 22° C.

SMILES | IC50
O=C(/C=C/CN1CCCOCC1)N1CCc2c(sc3ncnc(Nc4ccc(F)c(Cl)c4)c23)C1 [Example 5, N-(3-Chloro-4-fluorophenyl)-7-[(2E)-4-(1,4-oxazepan-4-yl)but-2-enoyl]-5,6,7,8-tetrahydropyrido[4′,3′:4,5]thieno[2,3-d]pyrimidin-4-amine] | 1 nM
O=C(/C=C/CN1C2CCC1CC2)N1CCc2c(sc3ncnc(Nc4ccc(F)c(Cl)c4)c23)C1 [Example 10, 7-[(2E)-4-(7-Azabicyclo[2.2.1]hept-7-yl)but-2-enoyl]-N-(3-chloro-4-fluorophenyl)-5,6,7,8-tetrahydropyrido[4′,3′:4,5]thieno[2,3-d]pyrimidin-4-amine] | 1.1 nM
COCCN(C/C=C/C(=O)N1CCc2c(sc3ncnc(Nc4ccc(F)c(Cl)c4)c23)C1)CCOC [Example 31] | 1 nM
CN(C)C(=O)N1CCN(C/C=C/C(=O)N2CCc3c(sc4ncnc(Nc5ccc(F)c(Cl)c5)c34)C2)CC1 [Example 70] | 1 nM
CN(C)C/C=C/C(=O)N1Cc2sc3ncnc(Nc4ccc(F)c(Cl)c4)c3c2C1 [Example 81, N-(3-Chloro-4-fluorophenyl)-6-[(2E)-4-(dimethylamino)but-2-enoyl]-6,7-dihydro-5H-pyrrolo[3′,4′:4,5]thieno[2,3-d]pyrimidin-4-amine] | 12 nM
CN(C)C/C=C/C(=O)N1Cc2sc3ncnc(Nc4ccc(OCc5cccc(F)c5)c(Cl)c4)c3c2C1 [Example 86, N-{3-Chloro-4-[(3-fluorobenzyl)oxy]phenyl}-6-[(2E)-4-(dimethylamino)but-2-enoyl]-6,7-dihydro-5H-pyrrolo[3′,4′:4,5]thieno[2,3-d]pyrimidin-4-amine] | 5 nM
CN(C)C/C=C/C(=O)N1Cc2sc3ncnc(Nc4ccc(OCc5ccccn5)c(Cl)c4)c3c2C1 [Example 87, N-[3-Chloro-4-(pyridin-2-ylmethoxy)phenyl]-6-[(2E)-4-(dimethylamino)but-2-enoyl]-6,7-dihydro-5H-pyrrolo[3′,4′:4,5]thieno[2,3-d]pyrimidin-4-amine] | 19 nM
CN(C/C=C/C(=O)N1CCc2c(sc3ncnc(Nc4cc(O)c(Cl)c(Cl)c4)c23)C1)C(C)(C)C [Example 134, 5-[(7-{(2E)-4-[tert-Butyl(methyl)amino]but-2-enoyl}-5,6,7,8-tetrahydropyrido[4′,3′:4,5]thieno[2,3-d]pyrimidin-4-yl)amino]-2,3-dichlorophenol] | 1 nM
CC(C)N(C)C/C=C/C(=O)N1CCc2sc3ncnc(Nc4ccc(Cl)c(Cl)c4)c3c2C1 [Example 139, N-(3,4-Dichlorophenyl)-6-{(2E)-4-[methyl(1-methylethyl)amino]but-2-enoyl}-5,6,7,8-tetrahydropyrido[3′,4′:4,5]thieno[2,3-d]pyrimidin-4-amine] | 9.2 nM
O=C(/C=C/CN1CCCOCC1)N1CCCc2c(sc3ncnc(Nc4ccc(Cl)c(Cl)c4)c23)C1 [Example 143, N-(3,4-Dichlorophenyl)-8-[(2E)-4-(1,4-oxazepan-4-yl)but-2-enoyl]-6,7,8,9-tetrahydro-5H-pyrimido[5′,4′:4,5]thieno[2,3-c]azepin-4-amine] | 1 nM
N#Cc1cnc2sc3c(c2c1Nc1ccc(Cl)c(Cl)c1)CCN(C(=O)/C=C/CN1CCCOCC1)C3 [Example 148, 4-[(3,4-Dichlorophenyl)amino]-7-[(2E)-4-(1,4-oxazepan-4-yl)but-2-enoyl]-5,6,7,8-tetrahydrothieno[2,3-b:5,4-c′]dipyridine-3-carbonitrile] | 4.3 nM

The remaining lines, values ahead:

IC50 | SMILES
10 nM | CN(C)C/C=C/C(=O)N1CCc2c(sc3ncc(C#N)c(Nc4ccc(F)c(Cl)c4)c23)C1 [Example 95, 4-[(3-Chloro-4-fluorophenyl)amino]-7-[(2E)-4-(dimethylamino)but-2-enoyl]-5,6,7,8-tetrahydrothieno[2,3-b:5,4-c′]dipyridine-3-carbonitrile]
6.4 nM | CC(C)N(C)C/C=C/C(=O)N1CCc2c(sc3ncc(C#N)c(Nc4ccc5c(cnn5Cc5cccc(F)c5)c4)c23)C1 [Example 151, 4-{[1-(3-Fluorobenzyl)-1H-indazol-5-yl]amino}-7-{(2E)-4-[methyl(1-methylethyl)amino]but-2-enoyl}-5,6,7,8-tetrahydrothieno[2,3-b:5,4-c′]dipyridine-3-carbonitrile]
4.6 nM | C[C@@H](Nc1ncnc2sc3c(c12)CCN(C(=O)/C=C/CN(C)C)C3)c1ccccc1 [Example 23, 7-[(2E)-4-(Dimethylamino)but-2-enoyl]-N-[(1R)-1-phenylethyl]-5,6,7,8-tetrahydropyrido[4′,3′:4,5]thieno[2,3-d]pyrimidin-4-amine]
2 nM | O=C(/C=C/[C@@H]1CCCN1)N1CCc2c(sc3ncnc(Nc4ccc(F)c(Cl)c4)c23)C1 [Example 13, N-(3-Chloro-4-fluorophenyl)-7-{(2E)-3-[(2S)-pyrrolidin-2-yl]prop-2-enoyl}-5,6,7,8-tetrahydropyrido[4′,3′:4,5]thieno[2,3-d]pyrimidin-4-amine]
1 nM | CC(C)(CN1CCOCC1)NC/C=C/C(=O)N1CCc2c(sc3ncnc(Nc4ccc(F)c(Cl)c4)c23)C1 [Example 12, N-(3-Chloro-4-fluorophenyl)-7-{(2E)-4-[(1,1-dimethyl-2-morpholin-4-ylethyl)amino]but-2-enoyl}-5,6,7,8-tetrahydropyrido[4′,3′:4,5]thieno[2,3-d]pyrimidin-4-amine]
1 nM | CN1CCC[C@H]1/C=C/C(=O)N1CCc2c(sc3ncnc(Nc4ccc(F)c(Cl)c4)c23)C1 [Example 14, N-(3-Chloro-4-fluorophenyl)-7-{(2E)-3-[(2S)-1-methylpyrrolidin-2-yl]prop-2-enoyl}-5,6,7,8-tetrahydropyrido[4′,3′:4,5]thieno[2,3-d]pyrimidin-4-amine]
1 nM | CC(C)N(C)C/C=C/C(=O)N1CCc2c(oc3ncnc(Nc4ccc(F)c(Cl)c4)c23)C1 [Example 90, N-(3-Chloro-4-fluorophenyl)-7-{(2E)-4-[methyl(1-methylethyl)amino]but-2-enoyl}-5,6,7,8-tetrahydropyrido[4′,3′:4,5]furo[2,3-d]pyrimidin-4-amine]

Reference: patent publication US8524722B2, “Substituted tricyclic compounds and methods of use thereof” (Bayer Intellectual Property GmbH, priority 2007, dated 2013)
